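Test compounds were applied to cells in 96-well plates for 48 hours at 5 doses. Definition used: TGI = concentration required for complete inhibition of growth.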
Columns and labels:
Assay in all cases: NCI tumour cell line growth inhibition, 48 h
NCI-H23 lung = test system: NCI-H23 lung
SK-MEL-2 melanoma = test system: SK-MEL-2 melanoma
SF-539 CNS = test system: SF-539 CNS
RPMI-8226 leukemia = test system: RPMI-8226 leukemia
TK-10 renal = test system: TK-10 renal
SK-MEL-28 melanoma = test system: SK-MEL-28 melanoma
DMS 273 small cell lung = test system: DMS 273 small cell lung
HOP-18 NSCLC = test system: HOP-18 NSCLC
SK-MEL-5 melanoma = test system: SK-MEL-5 melanoma
K-562 leukemia = test system: K-562 leukemia
U251 CNS = test system: U251 CNS
CCRF-CEM leukemia = test system: CCRF-CEM leukemia
MALME-3M melanoma = test system: MALME-3M melanoma
NCI-H460 lung = test system: NCI-H460 lung
HOP-92 NSCLC = test system: HOP-92 NSCLC
UACC-62 melanoma = test system: UACC-62 melanoma
UO-31 renal = test system: UO-31 renal
SW-620 colon = test system: SW-620 colon
786-0 renal = test system: 786-0 renal
MDA-N = test system: MDA-N
DLD-1 colon = test system: DLD-1 colon
M14 melanoma = test system: M14 melanoma
SK-OV-3 ovarian = test system: SK-OV-3 ovarian
MDA-MB-231 breast = test system: MDA-MB-231 breast
ACHN renal = test system: ACHN renal
KM20L2 colon = test system: KM20L2 colon
LOX IMVI melanoma = test system: LOX IMVI melanoma
IGROV1 ovarian = test system: IGROV1 ovarian
SF-295 CNS = test system: SF-295 CNS
A549 NSCLC = test system: A549 NSCLC
HCT-116 colon = test system: HCT-116 colon
SNB-75 CNS = test system: SNB-75 CNS
EKVX NSCLC = test system: EKVX NSCLC
SNB-19 CNS = test system: SNB-19 CNS
HCT-15 colon = test system: HCT-15 colon
M19-MEL melanoma = test system: M19-MEL melanoma
DU-145 prostate = test system: DU-145 prostate
HL-60(TB) leukemia = test system: HL-60(TB) leukemia
HT29 colon = test system: HT29 colon
KM12 colon = test system: KM12 colon
SF-268 CNS = test system: SF-268 CNS
SR leukemia = test system: SR leukemia
HOP-62 NSCLC = test system: HOP-62 NSCLC
OVCAR-8 ovarian = test system: OVCAR-8 ovarian
UACC-257 melanoma = test system: UACC-257 melanoma
OVCAR-4 ovarian = test system: OVCAR-4 ovarian
SN12K1 renal = test system: SN12K1 renal
PC-3 prostate = test system: PC-3 prostate
SN12C renal = test system: SN12C renal
T-47D breast = test system: T-47D breast
RXF 393 renal = test system: RXF 393 renal
HS 578T breast = test system: HS 578T breast
BT-549 breast = test system: BT-549 breast
NCI-H226 lung = test system: NCI-H226 lung
MOLT-4 leukemia = test system: MOLT-4 leukemia
NCI-H522 lung = test system: NCI-H522 lung
OVCAR-5 ovarian = test system: OVCAR-5 ovarian
NCI/ADR-RES ovarian = test system: NCI/ADR-RES ovarian
HCC-2998 colon = test system: HCC-2998 colon
SNB-78 CNS = test system: SNB-78 CNS
MCF7 breast = test system: MCF7 breast
OVCAR-3 ovarian = test system: OVCAR-3 ovarian
CAKI-1 renal = test system: CAKI-1 renal
P388 leukemia = test system: P388 leukemia
XF 498 CNS = test system: XF 498 CNS
P388/ADR leukemia = test system: P388/ADR leukemia
MDA-MB-435 = test system: MDA-MB-435
A498 renal = test system: A498 renal
DMS 114 small cell lung = test system: DMS 114 small cell lung
COLO 205 colon = test system: COLO 205 colon
LXFL 529 NSCLC = test system: LXFL 529 NSCLC
RXF-631 renal = test system: RXF-631 renal

COc1cccc2c1C(=O)c1c(O)c3c(c(O)c1C2=O)C[C@@](O)(/C(C)=N/NC(=O)c1ccccc1)C[C@@H]3OC1CC(N)C(O)C(C)O1 (stereo partly drawn)
TGI (NCI-H23 lung): 1.54 µM | TGI (SK-MEL-2 melanoma): 1.41 µM | TGI (SF-539 CNS): 1.58 µM | TGI (RPMI-8226 leukemia): 3.85 µM | TGI (TK-10 renal): 5.85 µM | TGI (SK-MEL-28 melanoma): 4.02 µM | TGI (DMS 273 small cell lung): 1.65 µM | TGI (HOP-18 NSCLC): 6.61 µM | TGI (SK-MEL-5 melanoma): 740 nM | TGI (K-562 leukemia): 4.25 µM | TGI (U251 CNS): 7.18 µM | TGI (CCRF-CEM leukemia): 3.19 µM | TGI (MALME-3M melanoma): 1.3 µM | TGI (NCI-H460 lung): 3.55 µM | TGI (HOP-92 NSCLC): 1.11 µM | TGI (UACC-62 melanoma): 1.19 µM | TGI (UO-31 renal): 8.69 µM | TGI (SW-620 colon): 4.89 µM | TGI (786-0 renal): 744 nM | TGI (MDA-N): 1960 nM | TGI (DLD-1 colon): 17.6 µM | TGI (M14 melanoma): 1480 nM | TGI (SK-OV-3 ovarian): 4.56 µM | TGI (MDA-MB-231 breast): 3.14 µM | TGI (ACHN renal): 975 nM | TGI (KM20L2 colon): 9.23 µM | TGI (LOX IMVI melanoma): 0.709 µM | TGI (IGROV1 ovarian): 6.35 µM | TGI (SF-295 CNS): 1.84 µM | TGI (A549 NSCLC): 4.25 µM | TGI (HCT-116 colon): 10.2 µM | TGI (SNB-75 CNS): 1.97 µM | TGI (EKVX NSCLC): 3.02 µM | TGI (SNB-19 CNS): 7.86 µM | TGI (HCT-15 colon): 19.9 µM | TGI (M19-MEL melanoma): 2.99 µM | TGI (DU-145 prostate): 903 nM | TGI (HL-60(TB) leukemia): 771 nM | TGI (HT29 colon): 6.04 µM | TGI (KM12 colon): 6.64 µM | TGI (SF-268 CNS): 3.35 µM | TGI (SR leukemia): 845 nM | TGI (HOP-62 NSCLC): 715 nM | TGI (OVCAR-8 ovarian): 5.96 µM | TGI (UACC-257 melanoma): 3.51 µM | TGI (OVCAR-4 ovarian): 7.74 µM | TGI (SN12K1 renal): 1880 nM | TGI (PC-3 prostate): 1750 nM | TGI (SN12C renal): 5.7 µM | TGI (T-47D breast): 3.44 µM | TGI (RXF 393 renal): 1.28 µM | TGI (HS 578T breast): 1820 nM | TGI (BT-549 breast): 1450 nM | TGI (NCI-H226 lung): 0.786 µM | TGI (MOLT-4 leukemia): 0.681 µM | TGI (NCI-H522 lung): 1.1 µM | TGI (OVCAR-5 ovarian): 4.73 µM | TGI (NCI/ADR-RES ovarian): 76 µM | TGI (HCC-2998 colon): 2020 nM | TGI (SNB-78 CNS): 6.1 µM | TGI (MCF7 breast): 2930 nM | TGI (OVCAR-3 ovarian): 4.55 µM | TGI (CAKI-1 renal): 1470 nM | TGI (P388 leukemia): 1610 nM | TGI (XF 498 CNS): 242 nM | TGI (P388/ADR leukemia): 35.6 µM | TGI (MDA-MB-435): 2150 nM | TGI (A498 renal): 3.42 µM | TGI (DMS 114 small cell lung): 1.11 µM | TGI (COLO 205 colon): 3.2 µM

NC(Cc1c[nH]c2ccccc12)C(=O)O (stereo not drawn)
TGI (NCI-H23 lung): > 300 µM | TGI (SK-MEL-2 melanoma): > 300 µM | TGI (SF-539 CNS): > 300 µM | TGI (RPMI-8226 leukemia): > 300 µM | TGI (SK-MEL-28 melanoma): > 300 µM | TGI (DMS 273 small cell lung): > 300 µM | TGI (HOP-18 NSCLC): 196 µM | TGI (SK-MEL-5 melanoma): > 300000 nM | TGI (K-562 leukemia): > 189 µM | TGI (U251 CNS): > 300 µM | TGI (CCRF-CEM leukemia): > 300 µM | TGI (MALME-3M melanoma): > 300 µM | TGI (NCI-H460 lung): > 300 µM | TGI (HOP-92 NSCLC): > 300 µM | TGI (UACC-62 melanoma): > 300 µM | TGI (UO-31 renal): > 300 µM | TGI (SW-620 colon): > 300 µM | TGI (DLD-1 colon): > 300 µM | TGI (SK-OV-3 ovarian): > 300 µM | TGI (KM20L2 colon): > 300 µM | TGI (LOX IMVI melanoma): > 300 µM | TGI (IGROV1 ovarian): > 300 µM | TGI (SF-295 CNS): > 300 µM | TGI (A549 NSCLC): > 300 µM | TGI (HCT-116 colon): > 300 µM | TGI (SNB-75 CNS): > 300 µM | TGI (EKVX NSCLC): > 300 µM | TGI (SNB-19 CNS): > 300 µM | TGI (HCT-15 colon): > 191 µM | TGI (M19-MEL melanoma): > 300 µM | TGI (HL-60(TB) leukemia): > 300000 nM | TGI (HT29 colon): > 300 µM | TGI (KM12 colon): > 300 µM | TGI (SF-268 CNS): > 300 µM | TGI (HOP-62 NSCLC): > 300000 nM | TGI (OVCAR-8 ovarian): > 248 µM | TGI (UACC-257 melanoma): > 300 µM | TGI (OVCAR-4 ovarian): > 300 µM | TGI (SN12K1 renal): > 300000 nM | TGI (SN12C renal): > 13.9 µM | TGI (RXF 393 renal): > 300 µM | TGI (NCI-H226 lung): > 300 µM | TGI (MOLT-4 leukemia): > 300 µM | TGI (NCI-H522 lung): > 300 µM | TGI (OVCAR-5 ovarian): > 300 µM | TGI (NCI/ADR-RES ovarian): > 300 µM | TGI (HCC-2998 colon): > 300000 nM | TGI (SNB-78 CNS): > 300 µM | TGI (MCF7 breast): > 300000 nM | TGI (OVCAR-3 ovarian): > 300 µM | TGI (CAKI-1 renal): > 300000 nM | TGI (P388 leukemia): > 300000 nM | TGI (P388/ADR leukemia): > 300 µM | TGI (A498 renal): > 13.9 µM | TGI (DMS 114 small cell lung): > 300 µM | TGI (COLO 205 colon): > 300 µM

COc1cc2ccc(/C(C)=N/OC(C)=O)cc2cc1OC
TGI (NCI-H23 lung): > 100 µM | TGI (SK-MEL-2 melanoma): > 100 µM | TGI (SF-539 CNS): > 100 µM | TGI (RPMI-8226 leukemia): > 100 µM | TGI (TK-10 renal): > 100 µM | TGI (SK-MEL-28 melanoma): > 100 µM | TGI (DMS 273 small cell lung): > 100 µM | TGI (HOP-18 NSCLC): > 100 µM | TGI (K-562 leukemia): > 100 µM | TGI (U251 CNS): > 100 µM | TGI (CCRF-CEM leukemia): > 100 µM | TGI (MALME-3M melanoma): > 100 µM | TGI (NCI-H460 lung): > 100 µM | TGI (HOP-92 NSCLC): > 100 µM | TGI (UACC-62 melanoma): > 100 µM | TGI (UO-31 renal): 99.6 µM | TGI (SW-620 colon): > 100 µM | TGI (786-0 renal): > 100000 nM | TGI (M14 melanoma): > 100000 nM | TGI (SK-OV-3 ovarian): > 100 µM | TGI (ACHN renal): > 100000 nM | TGI (KM20L2 colon): > 100 µM | TGI (LOX IMVI melanoma): > 100 µM | TGI (IGROV1 ovarian): > 100 µM | TGI (SF-295 CNS): > 100 µM | TGI (A549 NSCLC): > 100 µM | TGI (HCT-116 colon): > 100 µM | TGI (LXFL 529 NSCLC): > 100 µM | TGI (SNB-75 CNS): 40.9 µM | TGI (EKVX NSCLC): > 100 µM | TGI (SNB-19 CNS): > 100 µM | TGI (HCT-15 colon): > 100 µM | TGI (M19-MEL melanoma): > 100 µM | TGI (HT29 colon): > 100 µM | TGI (KM12 colon): > 100 µM | TGI (SF-268 CNS): > 100 µM | TGI (RXF-631 renal): > 100 µM | TGI (OVCAR-8 ovarian): > 100 µM | TGI (UACC-257 melanoma): > 100 µM | TGI (OVCAR-4 ovarian): > 100 µM | TGI (SN12C renal): > 100 µM | TGI (RXF 393 renal): > 100 µM | TGI (NCI-H226 lung): > 100 µM | TGI (MOLT-4 leukemia): > 100 µM | TGI (NCI-H522 lung): > 100 µM | TGI (OVCAR-5 ovarian): > 100 µM | TGI (SNB-78 CNS): > 100 µM | TGI (OVCAR-3 ovarian): > 100 µM | TGI (XF 498 CNS): > 100000 nM | TGI (A498 renal): 76.9 µM | TGI (DMS 114 small cell lung): > 100 µM | TGI (COLO 205 colon): > 100 µM

Reference: PubChem BioAssay (NCI)
